In US20210145768A1, “MODULATING IMMUNE RESPONSE VIA TARGETING OF OLFACTORY RECEPTOR ACTIVITY” (La Jolla Institute for Allergy and Immunology, priority 2018, published 2021):
“And” between values parts separate entries of the source, which are not always exact repeats. Identical values can stand only once.

Legend:
Olfr2 = target: T1, Olfr2 (Mus musculus, UniProt Q9QWU6); assay: En face atherosclerosis quantification in Apoe−/− mice fed western diet; assay type: in vivo; design: Olfr2 expression was confirmed at the protein level on F4/80^+ vascular macrophages; from tissue; host or cells: explanted whole aortas, digested aortic cell suspensions (F4/80+ vascular macrophages) and blood monocytes of Apoe-/- C57BL/6J mice; living Apoe-/- mice for the in vivo study; conditions: for atherosclerosis in mice: summary of in vivo injection experiments
T1 sequence (Q9QWU6 1-327): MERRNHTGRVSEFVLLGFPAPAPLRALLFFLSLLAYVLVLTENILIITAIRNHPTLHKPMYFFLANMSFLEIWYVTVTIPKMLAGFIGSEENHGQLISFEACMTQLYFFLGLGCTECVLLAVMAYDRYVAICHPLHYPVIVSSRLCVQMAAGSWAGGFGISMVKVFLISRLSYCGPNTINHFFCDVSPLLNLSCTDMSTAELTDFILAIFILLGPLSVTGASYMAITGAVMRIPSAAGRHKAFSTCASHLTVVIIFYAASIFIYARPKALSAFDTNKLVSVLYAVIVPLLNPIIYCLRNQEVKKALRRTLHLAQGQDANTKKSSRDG
Description: The effect of citral on atherosclerosis in Apoe−/− mice fed a high fat western diet, a widely used model of atherosclerosis, was investigated. Briefly, ApoE^−/− Mice (10 weeks old) were fed WD for 4 weeks before the inhibitor treatment, citral, was started. Citral at 10 mg/kg was diluted in 100 uL of PBS and injected I.P. every 3 days for 4 weeks for a total of 12 injections. During this time, mice continue to eat WD for a total of 8 weeks. […] Thus, blocking Olfr2 is anti-atherosclerotic, showing that Olfr2 contributes to atherosclerosis.
To test a possible impact of Olfr2 on atherosclerosis in vivo, male Apoe^−/− mice were fed WD for 8 weeks and injected octanal (10 μg/g) intraperitoneally for the last 4 weeks every three days for a total of 12 injections. […] Octanal had no effect on total cholesterol, LDL cholesterol, HDL cholesterol or triglycerides (FIG. 11A). Similarly, in a loss-of-function experiment, male Apoe^−/− mice were treated with citral (10 μg/g, 12 injections over 4 weeks), which reduced the size of atherosclerotic lesions by ˜40% (FIGS. 10F and G). Citral treatment like octanal had no effect on other parameters (FIG. 11A).
Male Apoe^−/− mice (9 to 10 wks old) were fed WD for 4 weeks. Oct or Cit were diluted in sterile phosphate buffered saline (PBS) (Gibco) at a final concentration of 10 μg/g. 100 μl were injected intraperitoneally (i.p.) every 3 days for 4 weeks (12 injections total) while maintaining WD administration. PBS+0.1% DMSO (Sigma Aldrich) was injected as a vehicle control following the same protocol. Mice were sacrificed, perfused with PBS implemented with 2% heparin (Fresenius Kabi USA, LLC) and aortas removed for en face atherosclerotic lesion assessment. Mouse whole blood (heart puncture) was collected in EDTA tubes. Leukocyte blood counts were determined with HemaVet 950 (Drew Scientific). Plasma was collected from blood centrifuged at 3000 g for 15 min at 4° C. and stored at −80° C. until further analysis.
After explant, each aorta was pinned out after 4% paraformaldehyde incubation at room temperature for at least 2 hours Staining for atherosclerotic plaque was performed by incubating samples in Sudan IV. Microphotographs of the luminal (endothelial) aspect were of the aortic surface were analyzed using Photoshop CS (Adobe Systems). Atherosclerotic lesion size measurement was performed by blinded investigators using Image-Pro Premier software (Media Cybernetics).

OR6A2 = target: T2, OR6A2 (Homo sapiens, UniProt O95222); assay: IL-1β production in LPS-primed human MDMs; assay type: cell-based
T2 construct: OR6A2 protein surface expression in hMDMs was confirmed by flow cytometry; endogenous in cells; host or cells: human monocyte-derived macrophages from healthy donors (rhM-CSF, 7 d)
T2 sequence (O95222 1-327): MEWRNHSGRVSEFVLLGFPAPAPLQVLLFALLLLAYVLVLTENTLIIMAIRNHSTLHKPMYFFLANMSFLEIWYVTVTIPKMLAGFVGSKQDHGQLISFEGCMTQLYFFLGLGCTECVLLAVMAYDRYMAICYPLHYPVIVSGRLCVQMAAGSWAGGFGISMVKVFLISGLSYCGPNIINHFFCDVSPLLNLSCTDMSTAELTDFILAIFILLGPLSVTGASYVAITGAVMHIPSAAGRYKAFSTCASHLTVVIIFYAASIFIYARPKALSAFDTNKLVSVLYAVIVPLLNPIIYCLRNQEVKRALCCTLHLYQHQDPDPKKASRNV
Description: Mouse BMDMs and human MDMs were pretreated with LPS (50 ng/mL) or left untreated for 18 h at 37° C. and 5% CO2. After this period LPS pretreated and untreated cells were further incubated with Oct (10 μM) and Cit (100 μM) alone (LPS+Oct; LPS+Cit; Oct; Cit, respectively) or combined (LPS+Oct+Cit) for further 8 h. Supernatants were collected by centrifugation at 2000 g for 15 minutes at 4° C., collected and frozen at −80° C. until further IL-1β analysis by CBA (BD Biosciences).
Supernatants of stimulated cells and aortic tissue were analyzed by BD CBA Flex Sets (BD Biosciences) for mouse TNFα, CCL2, CCL4, IL-1β, or human TNF, IL6, and IL-1β according to the manufacturer's protocol. Samples were analyzed with LSR-II (BD Biosciences). Data was acquired with FACSDiva software (BD Biosciences) and analyzed with FCAP array software 3.0 (BD Biosciences).

SMILES	lesion size, en face staining of aortic arches (Olfr2; Apoe−/− mice on WD 8 weeks, octanal 10 μg/g i.p., 12 injections over last 4 weeks)	atherosclerosis in mice (Olfr2)	IL-1β in the supernatant, hMDMs (OR6A2; LPS 50 ng/mL 18 h, then octanal)	reduction of atherosclerotic lesion size (Olfr2; Apoe−/− mice on WD 8 weeks, citral 10 μg/g i.p. every 3 days, 12 injections over last 4 weeks)	atherosclerotic lesions, % of the aortic area (Olfr2; Apoe−/− mice on WD, citral 10 mg/kg i.p., 12 injections, untreated ~8%, P<0.02) [%]	octanal-induced IL-1β in the supernatant, hMDMs (OR6A2; LPS, octanal + citral)
CCCCCCCC=O [octanal]	more than doubled	exacerbated atherosclerosis	highly significant increase	–	–	–
CC(C)=CCCC(C)=CC=O [citral]	–	protected mice from atherosclerosis	–	~50% and ~40%	~5	partially but significantly inhibited
